This note sets out measurements from publication PMC6611794, “Development of a high-throughput strategy for discovery of potent analogues of antibiotic lysocin E” (Nature Communications, 2019).

The subject of the assay is S. aureus. In kind it is cell-based, Staphylococcus aureus. The settings on record: 18 h. Here is the method: Antimicrobial activity assay of bead-derived peptides. […]
plate was added DMSO (1 µL/well). […]
precipitation of the grown cells was examined.
Evaluation of antimicrobial spectra of peptides. The MIC assay was performed according to the Clinical and Laboratory Standards Institute protocols. The antimicrobial activities of the peptides were measured […]
Soy Broth or Müller Hinton Broth agar plates. Bacterial inoculum was prepared by direct suspension of the […]
and incubated at 37 °C for 18 h. […]
inhibited growth of bacteria.

Where a SMILES comes first, the peptide text is derived from it. Bridges are numbered along the chain shown (N, C = ends). [ ]: non-standard residue; d: D form. The star is where a group is joined. Hexanoyl(3R-OH,5-Me) = CC(C)C[C@@H](O)CC(=O)*; dNMeF = CN[C@H](Cc1ccccc1)C(=O)O

`CC[C@H](C)[C@@H]1NC(=O)[C@@H](Cc2c[nH]c3ccccc23)NC(=O)[C@@H](CCC(N)=O)NC(=O)[C@H](CCC(=O)O)NC(=O)[C@@H](CCCNC(=N)N)NC(=O)[C@H](CC(C)C)NC(=O)[C@@H](Cc2ccccc2)N(C)C(=O)CNC(=O)[C@H](CO)NC(=O)[C@@H](CCCNC(=N)N)NC(=O)[C@@H](NC(=O)C[C@H](O)CC(C)C)[C@@H](C)OC(=O)[C@H]([C@@H](C)O)NC1=O` [Peptide 1, Lysocin E] ({Hexanoyl(3R-OH,5-Me)}-T[dR]SG[dNMeF]L[dR]E[dQ][dW]IT; ester 1-C): the “original MIC value against S. aureus” value lay within 2 to 4 µg/mL.
